Measured values taken from ChEMBL document CHEMBL1201862, “PubChem BioAssay data set” (2004).
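In this assay, cells in 96-well plates receive the compound at five concentrations for 48 hours. Endpoints are linearly interpolated between the surrounding concentrations. Abbreviation: GI50, concentration required for 50% inhibition of growth.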 Active and inactive are the calls of the source. Cut-off read from the data, not from the text of the source: active = GI50 up to about 1.1 µM and inactive = higher.

Tests used:
Test in all cases: NCI-60 cell line screen, 48 h
SW-620 = test system: SW-620
SNB-19 = test system: SNB-19
SF-295 = test system: SF-295
MDA-N = test system: MDA-N
SK-MEL-2 = test system: SK-MEL-2
PC-3 = test system: PC-3
CAKI-1 = test system: CAKI-1
NCI/ADR-RES = test system: NCI/ADR-RES
OVCAR-3 = test system: OVCAR-3
LOX IMVI = test system: LOX IMVI
NCI-H460 = test system: NCI-H460
OVCAR-4 = test system: OVCAR-4
BT-549 = test system: BT-549
SN12C = test system: SN12C
SF-268 = test system: SF-268
MDA-MB-435 = test system: MDA-MB-435
ACHN = test system: ACHN
A498 = test system: A498
TK-10 = test system: TK-10
OVCAR-8 = test system: OVCAR-8
EKVX = test system: EKVX
MDA-MB-231 = test system: MDA-MB-231
SNB-75 = test system: SNB-75
MOLT-4 = test system: MOLT-4
UACC-257 = test system: UACC-257
HCT-116 = test system: HCT-116
HT-29 = test system: HT-29
T47D = test system: T47D
SK-MEL-5 = test system: SK-MEL-5
SK-OV-3 = test system: SK-OV-3
COLO 205 = test system: COLO 205
SR = test system: SR
IGROV-1 = test system: IGROV-1
786-0 = test system: 786-0
RXF 393 = test system: RXF 393
DU-145 = test system: DU-145
RPMI-8226 = test system: RPMI-8226
NCI-H226 = test system: NCI-H226
SF-539 = test system: SF-539
A549 = test system: A549
HL-60 = test system: HL-60
SK-MEL-28 = test system: SK-MEL-28
Malme-3M = test system: Malme-3M
UO-31 = test system: UO-31
M14 = test system: M14
U-251 = test system: U-251
UACC-62 = test system: UACC-62
KM12 = test system: KM12
Hs-578T = test system: Hs-578T
NCI-H522 = test system: NCI-H522
CCRF-CEM = test system: CCRF-CEM
HCC 2998 = test system: HCC 2998
NCI-H23 = test system: NCI-H23
HOP-62 = test system: HOP-62
HCT-15 = test system: HCT-15
MCF7 = test system: MCF7
HOP-92 = test system: HOP-92
OVCAR-5 = test system: OVCAR-5
K562 = test system: K562

Measured: GI50

C[N+](C)(C)CC(=O)N/N=C(/CC1OC(=O)c2ccccc21)c1ccccc1O (stereo not given)
inactive: SW-620 33.4 µM | SNB-19 46.8 µM | SF-295 42.4 µM | MDA-N 54.1 µM | SK-MEL-2 72.8 µM | PC-3 60.5 µM | CAKI-1 34.1 µM | NCI/ADR-RES 19.3 µM | OVCAR-3 62.4 µM | LOX IMVI 17.4 µM | NCI-H460 24.4 µM | OVCAR-4 45.1 µM | BT-549 25.1 µM | SN12C 49 µM | SF-268 81.8 µM | MDA-MB-435 30.6 µM | ACHN 20.3 µM | A498 38.5 µM | TK-10 31.9 µM | OVCAR-8 29.2 µM | EKVX 62.4 µM | MDA-MB-231 95.9 µM | SNB-75 39.1 µM | MOLT-4 16.2 µM | UACC-257 24 µM | HCT-116 28.4 µM | HT-29 44.1 µM | T47D 25.6 µM | SK-MEL-5 46.6 µM | SK-OV-3 35.2 µM | COLO 205 68.2 µM | SR 14.3 µM | IGROV-1 37.8 µM | 786-0 25.8 µM | RXF 393 28 µM | DU-145 34.7 µM | RPMI-8226 5.94 µM | NCI-H226 20 µM | SF-539 20.3 µM | A549 76.6 µM | HL-60 16.2 µM | SK-MEL-28 29.2 µM | Malme-3M 59.8 µM | UO-31 24.2 µM | M14 > 100 µM | U-251 22 µM | UACC-62 22.9 µM | KM12 26.7 µM | Hs-578T 60.3 µM | NCI-H522 46.5 µM | CCRF-CEM 19 µM | HCC 2998 22.4 µM | NCI-H23 26.5 µM | HOP-62 35.4 µM | MCF7 54.8 µM | HOP-92 29.7 µM | OVCAR-5 > 100 µM
36.2 µM: HCT-15

CC1=NC(=Cc2ccccc2O)C(=O)N1n1c(-c2ccccc2)nc2ccccc2c1=O
39.4 µM: HCT-15
inactive: SW-620 49.1 µM | SNB-19 65.5 µM | SF-295 37.3 µM | MDA-N 41.3 µM | PC-3 30.3 µM | NCI/ADR-RES 33.3 µM | OVCAR-3 26.7 µM | LOX IMVI 33 µM | NCI-H460 30.3 µM | OVCAR-4 27.5 µM | BT-549 57.7 µM | SN12C 39.9 µM | SF-268 33.7 µM | MDA-MB-435 46.9 µM | ACHN 29.7 µM | A498 62.8 µM | TK-10 39.4 µM | OVCAR-8 33.7 µM | EKVX 34.9 µM | MDA-MB-231 33.2 µM | SNB-75 34.1 µM | MOLT-4 20.6 µM | UACC-257 41.9 µM | HCT-116 26.5 µM | HT-29 32.4 µM | T47D 21.5 µM | SK-MEL-5 23.8 µM | SK-OV-3 33.3 µM | COLO 205 34.5 µM | SR 32.5 µM | IGROV-1 32.1 µM | 786-0 45.5 µM | RXF 393 31 µM | DU-145 29.1 µM | RPMI-8226 48.5 µM | NCI-H226 51.1 µM | SF-539 26.7 µM | A549 35.1 µM | K562 30.5 µM | HL-60 35.6 µM | SK-MEL-28 36.9 µM | Malme-3M 80.5 µM | UO-31 32.9 µM | M14 61.1 µM | U-251 38.4 µM | UACC-62 14.3 µM | KM12 67 µM | Hs-578T 51.1 µM | NCI-H522 62.8 µM | CCRF-CEM 26.6 µM | HCC 2998 38.1 µM | NCI-H23 32.8 µM | HOP-62 55.1 µM | MCF7 25.6 µM | HOP-92 31.9 µM | OVCAR-5 40.5 µM
